In PMC5403950, “Mechanism Underlying the Reversal of Drug Resistance in P-Glycoprotein-Expressing Leukemia Cells by Pinoresinol and the Study of a Derivative” (Frontiers in Pharmacology, 2017):
Values joined by “and” are separate entries in the source; they are usually repeats but may differ in a detail not shown here. Equal entries are not always repeated. “Also recorded” adds a separate entry of the source. Structures can show the parent of a compound that is named as a salt. Where two headings read alike, the source gives them in different places.

Experiments:
K562 cells [1] = assay: Multidrug resistance reversal assay (MTT) with DOX, sensitive parental line; assay type: cell-based, human; details: for Effect on DOX sensitivity in K562: compound at highest non-toxic concentration (Table 1)
Experimental: (§1) Briefly, 5 × 10^4 Lucena 1 cells per well were seeded in 96-well plates containing RPMI-1640 medium in the presence of DOX alone or in combination with the tested compounds dissolved in ethanol or acetonitrile as appropriate. DOX was added to reach final concentrations of 0.05–431 μM. The compounds were assayed at the highest non-toxic concentration observed in both cell lines (cytotoxicity ≤ 20%, Cytotoxicity (%) = [1-(Optical density treatment-Optical density DMSO)/(Optical density control-Optical density DMSO)] x 100, determined by MTT proliferation assay (Joray et al., [2015]); maximum concentration tested 40 μg mL^−1). Following the primary screening, compounds 14 and 16 (dissolved in ethanol) were tested at serial dilutions. […] Subsequently, the supernatants were removed and replaced with 100 μL DMSO to solubilize the resulting purple formazan crystals produced from metabolically viable cells. Absorbance was measured with an iMark micro-plate reader (Bio-Rad, USA) at 595 nm.
(§2) The same reversal assay was performed in K562 cells, in order to discard a decrease in the IC50 of DOX due to effects other than P-gp inhibition. The reversal fold (RF) values for the tested compounds, which indicate their capacity to reduce resistance to DOX, were calculated by dividing the IC50 of DOX alone by the IC50 of DOX in the presence of the tested compounds (Xu et al., [2014]).

Lucena 1 cells [2] = assay: Multidrug resistance reversal assay (MTT) with DOX; assay type: cell-based, human; details: for Effect on DOX toxicity in Lucena 1: compound at highest non-toxic concentration (Table 1)
Experimental: as §1, §2

K562 cells [3] = assay: Reversal assay (MTT) with VLB, sensitive parental line; assay type: cell-based, human
Lucena 1 cells [4] = assay: Reversal assay (MTT) with VLB; assay type: cell-based, human
Experimental: Subsequently, the supernatants were removed and replaced with 100 μL DMSO to solubilize the resulting purple formazan crystals produced from metabolically viable cells.
The same reversal assay was performed in K562 cells, in order to discard a decrease in the IC50 of DOX due to effects other than P-gp inhibition.

K562 cells [5] = assay: Doxorubicin intracellular accumulation assay (flow cytometry), K562; assay type: cell-based, human; details: up to the maximum concentration evaluated
Excerpt: […]. […] Viability controls were included in all the experiments.

P-gp [6] = test system: P-gp; parameters: method as in Tamaki et al., 2008; details: applied at 50 and 100 μM; ref Tamaki et al., 2008; cited from earlier work
[7] = test system: KB-C2 cells overexpressing P-gp; parameters: method as in Nabekura et al., 2008; details: ref Nabekura et al., 2008; cited from earlier work
P-gp [8] = target: T1, P-gp (Homo sapiens, UniProt P08183); assay: Rhodamine 123 efflux assay (flow cytometry); assay type: cell-based; parameters: Lucena 1 was chosen as a well-characterized resistant cell line in which P-gp overexpression is the exclusive mechanism of acquired resistance; endogenous in cells; host or cells: Lucena 1 (drug-selected, P-gp overexpressing) and parental K562 human CML cells; details: Lucena 1; 14 at 112 μM; 30 min efflux
P-gp [9] = target: T1, P-gp; assay: Doxorubicin efflux assay (flow cytometry); assay type: cell-based; parameters: Lucena 1 was chosen as a well-characterized resistant cell line in which P-gp overexpression is the exclusive mechanism of acquired resistance; endogenous in cells; host or cells: Lucena 1 (drug-selected, P-gp overexpressing) and parental K562 human CML cells; details: Lucena 1
Experimental: […]. […] After washing, cells were incubated for 30 min with 14. […] Cells were then washed with ice-cold PBS and the intracellular DOX-associated MFI of 50,000 individual cells was determined by flow cytometry as previously described.

P-gp [10] = assay: Surface expression of P-gp (FITC anti-human P-gp, flow cytometry), Lucena 1; assay type: cell-based; details: 14 at 112 μM, 48 h
Experimental: (§3) To determine the effect of 14 on P-gp surface expression, Lucena 1 or K562 cells at a density of 5 × 10^4 cells mL^−1 were incubated in the presence of 14, dissolved in ethanol at 112 μM (maximum non-cytotoxic concentration, in order to ensure the presence of the effect) or 1% ethanol (control) for 24 and 48 h. Then, cells were washed with cold PBS and labeled for 30 min at 4°C in the dark with FITC-conjugated mouse anti-human P-gp antibody, which binds to an external epitope of P-gp, according to the manufacturer's instructions. Finally, cells were washed and suspended with ice-cold PBS and fluorescence intensity was determined in 10,000 individual cells by FACScan flow cytometry. FITC fluorescence was measured at an excitation wavelength of 488 nm and emitted light was collected with a 530/30 nm bandpass filter.

K562 cells [11] = assay: Rhodamine 123 efflux assay (flow cytometry), K562; assay type: cell-based, human; details: 14 at 112 μM
Experimental: Rho 123, a P-gp fluorescent substrate, is frequently employed as an indicator of P-gp activity and it was therefore used in an additional efflux study. […] Subsequently, cells were incubated with 500 ng mL^−1 of Rho 123 for 30 min. […] After washing twice with cold PBS, the amount of Rho 123 remaining in 10,000 individual cells after the efflux period was quantified by FACScan flow cytometry. Excitation was performed with a laser operating at 488 nm and the emitted fluorescence was collected through a 530/30 nm pass filter.

P-gp [12] = assay: Surface expression of P-gp (FITC anti-human P-gp, flow cytometry), K562; assay type: cell-based; details: 14 at 112 μM, 24 and 48 h
Experimental: as §3

P-gp [13] = target: T1, P-gp; details: Lucena 1; for % of inhibition related to verapamil (DOX accumulation): 112 μM
K562 cells [14] = assay: Doxorubicin efflux assay (flow cytometry), K562; assay type: cell-based, human; details: 14 at 112 μM, verapamil 30 μM
Experimental: Cells were then washed with ice-cold PBS and the intracellular DOX-associated MFI of 50,000 individual cells was determined by flow cytometry as previously described.

P-gp [15] = target: T1, P-gp; assay: P-gp ATPase activity ([…] ATPase assay kit, Sf9 membranes); assay type: biochemical; parameters: host or cells: Spodoptera frugiperda Sf9 cells (membrane preparation); details: for Maximum stimulation of P-gp-ATPase activity: activation assay, at 66.7 μM, relative to maximum activation by verapamil
Experimental: The ATPase reaction was subsequently stopped and the inorganic phosphate (Pi) produced was measured colorimetrically at 630 nm.
All experiments were performed in the absence or presence of 1.2 mM of sodium orthovanadate, an ABC transporter-related ATPase inhibitor, in order to measure the vanadate-sensitive portion of the total ATPase activity. […] Membranes from Sf9 cells expressing defective P-gp were used as controls.

[16] = 14 at 112 μM, verapamil as reference

T1 sequence (P08183 whole entry): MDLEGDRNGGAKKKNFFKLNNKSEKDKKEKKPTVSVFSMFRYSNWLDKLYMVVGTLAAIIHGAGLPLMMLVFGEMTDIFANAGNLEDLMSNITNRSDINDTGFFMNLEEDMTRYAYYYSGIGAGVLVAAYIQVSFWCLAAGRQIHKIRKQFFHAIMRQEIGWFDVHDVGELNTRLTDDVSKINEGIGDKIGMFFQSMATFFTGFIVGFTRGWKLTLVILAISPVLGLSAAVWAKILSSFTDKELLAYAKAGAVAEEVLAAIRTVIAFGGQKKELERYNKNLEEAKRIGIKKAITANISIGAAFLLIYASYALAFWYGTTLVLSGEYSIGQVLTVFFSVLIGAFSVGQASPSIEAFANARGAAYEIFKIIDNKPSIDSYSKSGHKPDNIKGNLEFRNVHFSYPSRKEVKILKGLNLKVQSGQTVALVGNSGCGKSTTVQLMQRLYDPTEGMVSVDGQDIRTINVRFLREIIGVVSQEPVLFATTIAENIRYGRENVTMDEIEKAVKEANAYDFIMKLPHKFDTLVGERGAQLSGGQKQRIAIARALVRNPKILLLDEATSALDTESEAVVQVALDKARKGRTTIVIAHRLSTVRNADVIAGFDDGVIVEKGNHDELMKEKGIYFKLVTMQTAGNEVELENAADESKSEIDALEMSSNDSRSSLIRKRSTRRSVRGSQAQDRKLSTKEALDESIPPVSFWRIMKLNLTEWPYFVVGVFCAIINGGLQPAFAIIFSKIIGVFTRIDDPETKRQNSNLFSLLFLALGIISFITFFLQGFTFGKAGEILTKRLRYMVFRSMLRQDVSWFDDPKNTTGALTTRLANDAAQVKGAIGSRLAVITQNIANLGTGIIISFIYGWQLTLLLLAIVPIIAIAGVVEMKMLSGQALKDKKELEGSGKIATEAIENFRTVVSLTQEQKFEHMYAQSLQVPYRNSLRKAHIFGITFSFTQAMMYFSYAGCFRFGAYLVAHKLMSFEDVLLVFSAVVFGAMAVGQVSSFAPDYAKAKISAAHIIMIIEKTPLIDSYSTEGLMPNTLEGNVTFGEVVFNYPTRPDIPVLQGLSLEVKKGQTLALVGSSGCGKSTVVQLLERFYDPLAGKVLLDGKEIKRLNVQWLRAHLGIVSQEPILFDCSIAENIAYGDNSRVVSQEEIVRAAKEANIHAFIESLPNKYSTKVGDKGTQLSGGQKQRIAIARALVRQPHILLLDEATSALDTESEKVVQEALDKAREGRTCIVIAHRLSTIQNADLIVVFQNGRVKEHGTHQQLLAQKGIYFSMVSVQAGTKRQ
T1 sequence (P08183 whole entry): as above

## O=C(/C=C/c1ccccc1)c1ccc(O)cc1O [Compound 6, 2′,4′-dihydroxychalcone]
K562 cells [1]
  Effect on DOX sensitivity in K562: caused a decrease in DOX IC50

## O=C1C[C@@H](c2ccc(O)cc2)Oc2cc(O)cc(O)c21 [Compound 8, naringenin]
Lucena 1 cells [2]
  Effect on DOX toxicity in Lucena 1: did not cause any effect in DOX toxicity

## CC1(C)C=Cc2c(cc3c(c2O)C(=O)CC(c2ccc(O)cc2O)O3)O1 (stereo not drawn) [Compound 9, dalenin]
K562 cells [1]
  Effect on DOX sensitivity in K562: caused a decrease in DOX IC50

## O=c1cc(-c2ccc(O)cc2)oc2cc(O)cc(O)c12 [Compound 10, apigenin]
Lucena 1 cells [2]
  Effect on DOX toxicity in Lucena 1: did not cause any effect in DOX toxicity

## O=c1c(O)c(-c2ccc(O)c(O)c2)oc2cc(O)cc(O)c12 [Compound 11, quercetin]
Lucena 1 cells [2]
  Effect on DOX toxicity in Lucena 1: decreased DOX sensitivity

## COc1cccc2c1C(=O)c1c(O)c3c(c(O)c1C2=O)C[C@@](O)(C(=O)CO)C[C@@H]3O[C@H]1C[C@H](N)[C@H](O)[C@H](C)O1 [DOX, Doxorubicin hydrochloride, reference compound]
K562 cells [1]; Homo sapiens, K562, MTT 48 h, 95% confidence limits in brackets, read-out: IC50 of DOX alone
  IC50: 1160 nM
Lucena 1 cells [2]; Homo sapiens, Lucena 1, MTT 48 h, 95% confidence limits in brackets, read-out: IC50 of DOX alone
  IC50: 40.8 µM
Lucena 1 cells [2]; ratio of DOX IC50 values
  Resistance of Lucena 1 to DOX relative to K562: 35 fold

## CC[C@]1(O)C[C@@H]2CN(CCc3c([nH]c4ccccc34)[C@@](C(=O)OC)(c3cc4c(cc3OC)N(C)[C@H]3[C@@](O)(C(=O)OC)[C@H](OC(C)=O)[C@]5(CC)C=CCN6CC[C@]43[C@@H]65)C2)C1 [VLB, vinblastine sulfate, reference compound]
K562 cells [3]; Homo sapiens, VLB alone
  IC50: 240 nM
Lucena 1 cells [4]; Homo sapiens, VLB alone
  IC50: 2490 nM

## COc1ccc(CCN(C)CCCC(C#N)(c2ccc(OC)c(OC)c2)C(C)C)cc1OC (stereo not drawn) [Verapamil, Verapamil hydrochloride, reference compound]
K562 cells [5]
  DOX accumulation in K562: No such increase in MFI

## (+)-pinoresinol [14 (+)-pinoresinol]
P-gp [6]
  Intracellular accumulation of calcein-AM: increased the intracellular accumulation of calcein-AM

## (-)-sesamin
[7]
  Concentration from which accumulation of daunorubicin increased: 50 µM

## (±)-pinoresinol [Compound 14]
K562 cells [5]
  DOX accumulation in K562: No such increase in MFI
P-gp [8]
  Enhancement of intracellular Rho 123 intensity in efflux assay: 1.5 fold
P-gp [9]; 14 at 112 μM, 30 min in DOX-free medium
  Increase in DOX-associated MFI (retention) vs control in efflux assay: 1.8 fold
P-gp [9]; 30 min efflux
  Minimum effective concentration (MEC) in the DOX efflux assay: 56 µM
P-gp [10]
  P-gp expression at the membrane surface vs control: less P-gp at the Lucena 1 cell membrane; also recorded: lower
K562 cells [11]
  Rho 123-associated MFI in K562: did not induce any increase
K562 cells [1]
  Effect on DOX sensitivity in K562: did not increase DOX sensitivity
K562 cells [3]; [16]
  Reversal fold (RF) to VLB: 9 and 9.63
P-gp [12]
  P-gp presence in the outer membrane: No suppression of P-gp presence
P-gp [13]; 0 h pre-incubation
  % of inhibition related to verapamil (DOX accumulation): 60%
P-gp [13]; 0.5 h pre-incubation
  % of inhibition related to verapamil (DOX accumulation): 73%
P-gp [13]; 1 h pre-incubation, verapamil 30 μM = maximum inhibition
  % of inhibition related to verapamil (DOX accumulation): 79%
P-gp [13]; 48 h pre-incubation
  % of inhibition related to verapamil (DOX accumulation): 55%
P-gp [13]; 14 at 56 μM (MEC)
  % inhibition with respect to verapamil (DOX accumulation): 80%
P-gp [13]; 14 at 112 μM, at 20 min, compared with MFI in K562
  Time course of DOX accumulation: fully restored the presence of DOX within Lucena 1 cells
P-gp [13]; 1 h pre-incubation, 5 μM DOX 1 h
  Minimum effective concentration (MEC) in the DOX accumulation assay: 56 µM
P-gp [13]; 1 h with 14, then 1 h DOX
  Type of P-gp inhibition (Lineweaver-Burk double reciprocal plot of DOX retention): competitive inhibitor
P-gp [13]; 48 h pre-incubation, 14 at 112 μM, verapamil 30 μM, 5 μM DOX 1 h
  Increase in DOX-associated MFI vs ethanol control: 1.4 fold
P-gp [13]; no pre-incubation (0 h), 14 at 112 μM, verapamil 30 μM, 5 μM DOX 1 h
  Increase in DOX accumulation (MFI) vs ethanol control: 1.3 fold
Lucena 1 cells [2]; Lucena 1, DOX
  Minimum effective concentration (MEC) in the reversal assay (potentiation of DOX toxicity from): 7 µM
Lucena 1 cells [2]; compound at 28 μM (serial dilution), DOX
  RF Lucena 1: 3.4
K562 cells [14]
  Effect on DOX efflux in K562: Neither 14 nor verapamil showed any significant effect
P-gp [15]
  Maximum stimulation of P-gp-ATPase activity: 29.49 ± 4.55%
P-gp [15]; listed as pinoresinol
  Maximum stimulation of P-gp-ATPase activity: 29%
P-gp [15]; membranes from Sf9 cells expressing defective P-gp, up to 600 μM
  Effect on ATPase activity of control membranes: no effect
Lucena 1 cells [4]; [16]
  Reversal fold (RF) to VLB: 60 and 60.20
